Where two headings read alike, the source gives them in different places.
Test system: HCMV AD169 (WT)
Test: qPCR-based replication assay, parental HCMV AD169 (WT) in HFF-UL50 cells
Assay type: cell-based
Protocol: The viral genome copy number in cell culture supernatants was determined by IE1-specific quantitative real-time PCR (qPCR) as described previously. […] For the qPCR reactions, aliquots of infected-cell supernatants were incubated with proteinase K (Sigma-Aldrich, St. Louis, MO, USA) at 56 °C for 1 h in order to release the viral DNA. After a denaturation step at 95 °C for 5 min, the DNA samples were optionally stored at 4 °C or directly used for qPCR, as performed in a 25 µL reaction mixture containing 5 µL of either the sample or the standard DNA solution. Additional components of the reaction mixture were 12.5 µL 2× TaqMan PCR Mastermix (Applied Biosystems, Waltham, MA, USA), 7.5 pmol of each primer (5′-[…]-3′) and 5′-[…]-3′) and 5 pmol probe directed against the HCMV MIE region exon 4 (5′-[…]-3′), which was labeled with 6-carboxyfluorescein reporter dye and 6-carboxytetramethylrhodamine quencher dye. The DNA standard for quantification was prepared by serial dilutions of an MIE-inserted plasmid. The thermal cycling conditions consisted of two initial steps of 2 min at 50 °C and 10 min at 95 °C followed by 40 amplification cycles (15 s at 95 °C, 1 min 60 °C). Reactions were performed with an ABI Prism 7700 sequence detector (Applied Biosystems, Waltham, MA, USA).
To this end, the conditional expression system of the HCMV ΔUL50-ΣUL53 recombinant was applied. […] The relative differences in viral replication efficiencies, under these four chosen conditions, were normalized by two means, namely, by using the same conditions in the DMSO control panel (±S, ±D) and by evaluating viral replication in percentage values (% DMSO).
HFF-UL50 cells were cultivated in 96-well plates and infected with (A,B) HCMV ∆UL50-ΣUL53, with (C) parental HCMV AD169 (WT), using adjusted genome copy numbers, or remained uninfected (mock). Viral input was adjusted to 1 × 10^5 copies per well. […] Dox was refreshed every second day. At 14 d p.i., supernatants were harvested, and viral genome equivalents were determined using HCMV IE1-specific qPCR. […]

C=CC(=O)N1CCC[C@@H](n2nc(-c3ccc(Oc4ccccc4)cc3)c3c(N)ncnc32)C1 [ibrutinib]
EC50 (Human betaherpesvirus 5, AD169, 336 h, AD169 WT, +S+D, 14 d p.i., qPCR, read-out: EC50): 2300 ± 1800 nM
EC50 (Human betaherpesvirus 5, AD169, 336 h, AD169 WT, -S-D, 14 d p.i., qPCR, read-out: EC50): 2500 ± 2800 nM
EC50 (Human betaherpesvirus 5, AD169, parental HCMV AD169, qPCR-based assays, mean, read-out: mean EC50): 2400 nM

— publication PMC10137179, “Assessment of Covalently Binding Warhead Compounds in the Validation of the Cytomegalovirus Nuclear Egress Complex as an Antiviral Target” (Cells, 2023)
